According to PubChem BioAssay (NCI):
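1) Cells in 96-well plates. 2) Compound, 48 h, 5 concentrations. 3) Linear interpolation between surrounding doses. 4) Unreached endpoint = highest concentration. Abbreviation: GI50, concentration required for 50% inhibition of growth. Definition used: TGI = concentration required for complete inhibition of growth.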

Key:
Experiment in all cases: growth of human tumour cells (NCI), 48 h
786-0 renal = test system: 786-0 renal
A549 NSCLC = test system: A549 NSCLC
ACHN renal = test system: ACHN renal
BT-549 breast = test system: BT-549 breast
CAKI-1 renal = test system: CAKI-1 renal
CCRF-CEM leukemia = test system: CCRF-CEM leukemia
COLO 205 colon = test system: COLO 205 colon
DU-145 prostate = test system: DU-145 prostate
EKVX NSCLC = test system: EKVX NSCLC
HCC-2998 colon = test system: HCC-2998 colon
HCT-116 colon = test system: HCT-116 colon
HCT-15 colon = test system: HCT-15 colon
HL-60(TB) leukemia = test system: HL-60(TB) leukemia
HOP-62 NSCLC = test system: HOP-62 NSCLC
HOP-92 NSCLC = test system: HOP-92 NSCLC
HS 578T breast = test system: HS 578T breast
HT29 colon = test system: HT29 colon
IGROV1 ovarian = test system: IGROV1 ovarian
K-562 leukemia = test system: K-562 leukemia
KM12 colon = test system: KM12 colon
LOX IMVI melanoma = test system: LOX IMVI melanoma
M14 melanoma = test system: M14 melanoma
MALME-3M melanoma = test system: MALME-3M melanoma
MCF7 breast = test system: MCF7 breast
MDA-MB-231 breast = test system: MDA-MB-231 breast
MDA-MB-435 = test system: MDA-MB-435
MDA-MB-468 breast = test system: MDA-MB-468 breast
MOLT-4 leukemia = test system: MOLT-4 leukemia
NCI-H226 lung = test system: NCI-H226 lung
NCI-H23 lung = test system: NCI-H23 lung
NCI-H460 lung = test system: NCI-H460 lung
NCI-H522 lung = test system: NCI-H522 lung
NCI/ADR-RES ovarian = test system: NCI/ADR-RES ovarian
OVCAR-3 ovarian = test system: OVCAR-3 ovarian
OVCAR-4 ovarian = test system: OVCAR-4 ovarian
OVCAR-5 ovarian = test system: OVCAR-5 ovarian
OVCAR-8 ovarian = test system: OVCAR-8 ovarian
PC-3 prostate = test system: PC-3 prostate
RPMI-8226 leukemia = test system: RPMI-8226 leukemia
RXF 393 renal = test system: RXF 393 renal
SF-268 CNS = test system: SF-268 CNS
SF-295 CNS = test system: SF-295 CNS
SF-539 CNS = test system: SF-539 CNS
SK-MEL-2 melanoma = test system: SK-MEL-2 melanoma
SK-MEL-28 melanoma = test system: SK-MEL-28 melanoma
SK-MEL-5 melanoma = test system: SK-MEL-5 melanoma
SK-OV-3 ovarian = test system: SK-OV-3 ovarian
SN12C renal = test system: SN12C renal
SNB-19 CNS = test system: SNB-19 CNS
SNB-75 CNS = test system: SNB-75 CNS
SW-620 colon = test system: SW-620 colon
T-47D breast = test system: T-47D breast
TK-10 renal = test system: TK-10 renal
U251 CNS = test system: U251 CNS
UACC-257 melanoma = test system: UACC-257 melanoma
UACC-62 melanoma = test system: UACC-62 melanoma
UO-31 renal = test system: UO-31 renal

## CN(C)c1nc(NCCNS(=O)(=O)c2ccc(C3=Nc4c(N)nc(N)nc4NC(c4ccccc4)C3)cc2)nc(Nc2ccc(F)cc2)n1 (centres undefined)
786-0 renal
  GI50: 7.88 µM
  TGI: > 100 µM
A549 NSCLC
  GI50: > 100 µM
  TGI: > 100 µM
ACHN renal
  GI50: > 100 µM
  TGI: > 100 µM
BT-549 breast
  GI50: 8.82 µM
  TGI: > 100 µM
CAKI-1 renal
  GI50: 9.73 µM
  TGI: > 100 µM
CCRF-CEM leukemia
  GI50: 4.02 µM
  TGI: > 100 µM
COLO 205 colon
  GI50: 16.4 µM
  TGI: > 100 µM
DU-145 prostate
  GI50: > 100 µM
  TGI: > 100 µM
EKVX NSCLC
  GI50: 6.65 µM
  TGI: > 100 µM
HCC-2998 colon
  GI50: 11.7 µM
  TGI: > 100 µM
HCT-116 colon
  GI50: 7.37 µM
  TGI: > 100 µM
HCT-15 colon
  GI50: > 100 µM
  TGI: > 100 µM
HL-60(TB) leukemia
  GI50: 4.24 µM
  TGI: > 100 µM
HOP-62 NSCLC
  GI50: 99.7 µM
  TGI: > 100 µM
HOP-92 NSCLC
  GI50: 2.18 µM
  TGI: 9.96 µM
HS 578T breast
  GI50: 6.43 µM
  TGI: > 100 µM
HT29 colon
  GI50: 5.32 µM
  TGI: > 100 µM
IGROV1 ovarian
  GI50: 5.76 µM
  TGI: > 100 µM
K-562 leukemia
  GI50: 4.33 µM
  TGI: > 100 µM
KM12 colon
  GI50: 8.8 µM
  TGI: > 100 µM
LOX IMVI melanoma
  GI50: 9.96 µM
  TGI: 25.7 µM
M14 melanoma
  GI50: 24.4 µM
  TGI: > 100 µM
MALME-3M melanoma
  GI50: 7.34 µM
  TGI: > 100 µM
MCF7 breast
  GI50: 3.85 µM
  TGI: 85.5 µM
MDA-MB-231 breast
  GI50: 6.16 µM
  TGI: 67.5 µM
MDA-MB-435
  GI50: 15 µM
  TGI: > 100 µM
MDA-MB-468 breast
  GI50: 3.37 µM
  TGI: 13.7 µM
MOLT-4 leukemia
  GI50: 3.11 µM
  TGI: > 100 µM
NCI-H226 lung
  GI50: > 100 µM
  TGI: > 100 µM
NCI-H23 lung
  GI50: > 100 µM
  TGI: > 100 µM
NCI-H460 lung
  GI50: 6.49 µM
  TGI: > 100 µM
NCI-H522 lung
  GI50: 77.4 µM
  TGI: > 100 µM
NCI/ADR-RES ovarian
  GI50: > 100 µM
  TGI: > 100 µM
OVCAR-3 ovarian
  GI50: 69.3 µM
  TGI: > 100 µM
OVCAR-4 ovarian
  GI50: 74.6 µM
  TGI: > 100 µM
OVCAR-5 ovarian
  GI50: > 100 µM
  TGI: > 100 µM
OVCAR-8 ovarian
  GI50: 61.4 µM
  TGI: > 100 µM
PC-3 prostate
  GI50: 3.84 µM
  TGI: > 100 µM
RPMI-8226 leukemia
  GI50: 3.32 µM
  TGI: > 100 µM
RXF 393 renal
  GI50: 2.55 µM
  TGI: 8.95 µM
SF-268 CNS
  GI50: 9.85 µM
  TGI: > 100 µM
SF-295 CNS
  GI50: 9.5 µM
  TGI: > 100 µM
SF-539 CNS
  GI50: 12 µM
  TGI: 63.8 µM
SK-MEL-2 melanoma
  GI50: 28.5 µM
  TGI: > 100 µM
SK-MEL-28 melanoma
  GI50: > 100 µM
  TGI: > 100 µM
SK-MEL-5 melanoma
  GI50: 5.81 µM
  TGI: 20.5 µM
SK-OV-3 ovarian
  GI50: > 100 µM
  TGI: > 100 µM
SN12C renal
  GI50: 7.83 µM
  TGI: > 100 µM
SNB-19 CNS
  GI50: 21.8 µM
  TGI: > 100 µM
SNB-75 CNS
  GI50: 3.58 µM
  TGI: > 100 µM
SW-620 colon
  GI50: 40.4 µM
  TGI: > 100 µM
T-47D breast
  GI50: 5.12 µM
  TGI: > 100 µM
TK-10 renal
  GI50: > 100 µM
  TGI: > 100 µM
U251 CNS
  GI50: 18.4 µM
  TGI: > 100 µM
UACC-257 melanoma
  GI50: 87.2 µM
  TGI: > 100 µM
UACC-62 melanoma
  GI50: 31.5 µM
  TGI: > 100 µM
UO-31 renal
  GI50: > 100 µM
  TGI: > 100 µM
